This note sets out measurements from patent US9539256B2 (THE BOARD OF REGENTS OF THE UNIVERSITY OF TEXAS SYSTEM, priority 2012, dated 2017).

The test system of experiment [1] is CD4+CD25− (Tconv) proliferation in the presence Tregs. Kind of experiment: In vitro Treg suppression assay of Tconv proliferation. In kind it is cell-based, mice. The note with it: assay repeated in the presence of ESI-09; compared with Epac1 KO outcome. An excerpt:
The suppressive potency of WT and Epac1 KO Tregs was examined using an in vitro assay that examines CD4+CD25− (Tconv) proliferation in the presence Tregs. Epac1 KO Tconv and WT Tconv proliferated at the same rate when cultured alone. The addition of WT Tregs suppressed the proliferation of both cell populations to the same extent, while the addition of Epac1 KO Tregs suppressed the proliferation of Epac1 KO Tconv to a much lesser degree than it did WT Tconv's.

For experiment [2], the target named is T1, EPAC2 (Mus musculus, UniProt Q9EQZ6).
T1 sequence (Q9EQZ6 1-1011): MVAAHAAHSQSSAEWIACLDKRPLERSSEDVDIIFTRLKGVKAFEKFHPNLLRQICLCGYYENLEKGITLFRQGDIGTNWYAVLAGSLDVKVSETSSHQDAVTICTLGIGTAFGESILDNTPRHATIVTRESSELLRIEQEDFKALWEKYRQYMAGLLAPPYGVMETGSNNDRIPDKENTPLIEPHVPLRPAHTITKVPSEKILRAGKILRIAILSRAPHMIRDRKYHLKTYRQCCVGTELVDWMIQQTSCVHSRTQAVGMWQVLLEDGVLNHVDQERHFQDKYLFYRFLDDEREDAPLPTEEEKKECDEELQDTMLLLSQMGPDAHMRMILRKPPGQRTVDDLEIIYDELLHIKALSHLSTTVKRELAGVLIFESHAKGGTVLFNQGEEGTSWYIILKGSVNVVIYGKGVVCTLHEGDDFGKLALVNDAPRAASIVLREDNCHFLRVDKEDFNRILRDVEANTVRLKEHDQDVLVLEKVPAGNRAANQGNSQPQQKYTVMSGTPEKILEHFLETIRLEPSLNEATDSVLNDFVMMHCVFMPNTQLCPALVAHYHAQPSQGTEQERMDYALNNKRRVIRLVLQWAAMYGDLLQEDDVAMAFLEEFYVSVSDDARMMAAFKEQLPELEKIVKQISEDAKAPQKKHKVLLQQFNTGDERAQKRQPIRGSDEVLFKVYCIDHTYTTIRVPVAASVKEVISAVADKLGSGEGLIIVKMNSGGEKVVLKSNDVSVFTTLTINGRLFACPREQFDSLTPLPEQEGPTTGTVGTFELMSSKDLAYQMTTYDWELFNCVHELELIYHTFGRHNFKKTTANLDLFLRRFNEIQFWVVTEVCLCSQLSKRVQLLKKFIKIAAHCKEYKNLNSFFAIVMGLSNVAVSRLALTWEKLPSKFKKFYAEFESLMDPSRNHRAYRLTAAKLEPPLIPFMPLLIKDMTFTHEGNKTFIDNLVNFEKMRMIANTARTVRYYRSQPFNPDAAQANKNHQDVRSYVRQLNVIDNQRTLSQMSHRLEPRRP
Kind of experiment: Rap1-GDP exchange (GEF) activity assay, EPAC2.
Experimental: Exchange of Mant-GDP by GDP was measured as a decrease in fluorescence intensity over time using a FluoroMax-3 spectrofluorometer with excitation/emission wavelengths set at 366/450 nm. Typically, decay in the fluorescence intensity was recorded over a time course of 6000 s with data points taken every 60 s.

Experiment [3] has as its target T2, EPAC2 (Homo sapiens, UniProt Q8WZA2).
T2 construct: HEK293 cells that ectopically express full-length EPAC2 proteins; expressed in transfected cells; host or cells: HEK293
Kind of experiment: Phosphorylation of Akt in HEK293/EPAC2 cells. As to conditions: 10 μM for 5 min before 007-AM. The experiment is classed as cell-based. As to the method: (§1) FIG. 10. Effect of ESI-09 on EPAC-mediated PKB phosphorylation in HEK293/EPAC1, HEK293/EPAC2, and human vascular smooth muscle (hVSMC) cells. Serum-starved HEK293/EPAC1, HEK293/EPAC2, and hVSMC cells with or without pretreatment of […] ESI-09 were stimulated with 10 μM 007-AM. Cell lysates were subjected to Western blot analysis as described under “Experimental Procedures” using anti-phospho-Ser473-specific (PKB-P473) and anti-phospho-Thr308-specific (PKB-P308) PKB antibodies.
(§2) Cellular proteins from cell lysates treated with various reagents were separated by SDS-PAGE and transferred to polyvinylidene difluoride membrane. The levels of Akt activation were probed by immuno-blotting analyses using anti-phosphate T308 PKB antibodies (1:1000) and anti-phosphate S473 PKB antibodies (1:1000). At least three independent experiments were performed for each Western blot.

In experiment [4] the test system is type II PKA holoenzyme. Kind of experiment: PKA counter screening, type II holoenzyme. In kind it is biochemical. As to conditions: 25 μM compound. The protocol:
(§3) Kinase activity of the type I and II PKA holoenzyme are measured spectrophotometrically in a 96-well plate with a coupled enzyme assay as described previously (Cook et al. (1982) Biochemistry 21: 5794-5799). In this assay, the formation of ADP is coupled to the oxidation of NADH by the pyruvate kinase/lactate dehydrogenase reactions so the reaction rate can be determined by following the oxidation of NADH, reflected by a decrease in absorbance at 340 nm. […] Reactions are pre-equilibrated at room temperature and initiated by adding the Kemptide substrate (final concentration 0.26 mM).
(A counterscreen serves to expose hits that act by an unwanted route or on another target.)

For experiment [5], the target named is T3, EPAC1 (Homo sapiens, UniProt O95398).
T3 sequence (O95398 1-923): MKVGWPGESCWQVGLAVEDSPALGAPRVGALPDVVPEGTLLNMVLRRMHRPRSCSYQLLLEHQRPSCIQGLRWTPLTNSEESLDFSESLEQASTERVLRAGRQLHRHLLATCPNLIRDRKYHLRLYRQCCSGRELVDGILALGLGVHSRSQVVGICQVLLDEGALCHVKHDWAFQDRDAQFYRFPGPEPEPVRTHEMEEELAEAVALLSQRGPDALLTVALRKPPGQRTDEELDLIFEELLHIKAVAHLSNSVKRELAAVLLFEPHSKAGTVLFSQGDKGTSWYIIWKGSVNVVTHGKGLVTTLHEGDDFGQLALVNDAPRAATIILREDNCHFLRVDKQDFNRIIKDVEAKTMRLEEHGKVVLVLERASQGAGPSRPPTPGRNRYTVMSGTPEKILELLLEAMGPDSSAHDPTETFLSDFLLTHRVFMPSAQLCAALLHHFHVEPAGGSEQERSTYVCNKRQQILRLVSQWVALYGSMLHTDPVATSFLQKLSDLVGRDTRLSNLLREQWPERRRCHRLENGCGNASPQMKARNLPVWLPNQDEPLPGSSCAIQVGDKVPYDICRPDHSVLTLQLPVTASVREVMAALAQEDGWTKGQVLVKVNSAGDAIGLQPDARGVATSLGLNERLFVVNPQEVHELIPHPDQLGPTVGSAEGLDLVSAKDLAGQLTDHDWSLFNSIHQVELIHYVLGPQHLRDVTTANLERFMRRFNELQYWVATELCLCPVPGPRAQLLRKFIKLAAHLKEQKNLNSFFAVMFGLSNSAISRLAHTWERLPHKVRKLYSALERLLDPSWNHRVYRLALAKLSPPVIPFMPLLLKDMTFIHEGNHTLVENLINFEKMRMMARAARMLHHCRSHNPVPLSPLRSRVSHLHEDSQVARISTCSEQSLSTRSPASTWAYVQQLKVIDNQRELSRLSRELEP
Kind of experiment: Phosphorylation of Akt in HEK293/EPAC1 cells. In kind it is cell-based. The note with it: 10 μM for 5 min before 007-AM. The protocol: as §1, §2

In experiment [6] the test system is type I PKA holoenzyme. Kind of experiment: PKA counter screening, type I holoenzyme. In kind it is biochemical. The note with it: 25 μM compound. The protocol:
as §3

T2 sequence (Q8WZA2 whole entry, species assumed): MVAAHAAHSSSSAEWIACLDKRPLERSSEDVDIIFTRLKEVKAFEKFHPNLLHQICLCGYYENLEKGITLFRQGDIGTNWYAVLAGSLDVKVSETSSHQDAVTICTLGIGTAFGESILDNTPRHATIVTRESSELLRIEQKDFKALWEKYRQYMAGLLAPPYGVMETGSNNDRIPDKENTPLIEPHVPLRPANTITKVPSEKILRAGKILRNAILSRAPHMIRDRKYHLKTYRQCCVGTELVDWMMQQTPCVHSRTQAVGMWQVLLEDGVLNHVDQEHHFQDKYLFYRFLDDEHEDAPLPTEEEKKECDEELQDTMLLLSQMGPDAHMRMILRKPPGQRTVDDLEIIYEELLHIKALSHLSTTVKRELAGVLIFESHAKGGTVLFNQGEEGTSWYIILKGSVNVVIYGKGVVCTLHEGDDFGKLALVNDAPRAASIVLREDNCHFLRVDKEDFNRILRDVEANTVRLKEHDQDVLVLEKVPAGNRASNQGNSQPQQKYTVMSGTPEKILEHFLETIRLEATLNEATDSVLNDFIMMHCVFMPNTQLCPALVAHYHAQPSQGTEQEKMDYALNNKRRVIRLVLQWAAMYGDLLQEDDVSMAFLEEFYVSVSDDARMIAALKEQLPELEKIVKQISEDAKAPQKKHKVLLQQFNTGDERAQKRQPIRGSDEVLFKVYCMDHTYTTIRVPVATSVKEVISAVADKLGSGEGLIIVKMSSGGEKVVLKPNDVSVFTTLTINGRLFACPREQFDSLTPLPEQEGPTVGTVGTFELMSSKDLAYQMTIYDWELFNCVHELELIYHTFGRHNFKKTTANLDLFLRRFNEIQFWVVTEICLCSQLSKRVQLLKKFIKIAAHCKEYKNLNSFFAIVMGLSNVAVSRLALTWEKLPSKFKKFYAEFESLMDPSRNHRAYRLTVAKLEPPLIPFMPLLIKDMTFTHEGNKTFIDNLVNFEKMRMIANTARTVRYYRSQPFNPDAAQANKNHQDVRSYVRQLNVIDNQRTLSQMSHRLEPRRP

On to `CC(C)(C)c1cc(C(=O)C(C#N)=NNc2cccc(Cl)c2)no1` [ESI-09, 3-(5-Tert-Butyl-Isoxazol-3-Yl)-2-[(3-Chlorophenyl)-Hydrazono]-3-Oxo-Propionitrile], for which the “Tregs mediated suppression of Tconv” value in experiment [1] was “the outcome was similar”. Moreover, 1400 ± 100 nM corresponded to half-maximal inhibition in experiment [2] (IC50). The “EPAC2-mediated Akt phosphorylation (T308 and S473)” value in experiment [3] is “completely blocked”. The “cAMP-induced type II PKA holoenzyme activation” value in experiment [4] is “did not significantly alter”. Also, the “EPAC1-mediated Akt phosphorylation (T308 and S473)” value in experiment [5] was “completely blocked”. In experiment [6], the “cAMP-induced type I PKA holoenzyme activation” value was “did not significantly alter”.
